According to patent publication US20060004191A1, “Modified sodium iodide symporter proteins and genes for imaging and cancer therapy” (priority 2002, published 2006):
“Also recorded” adds a separate entry of the source.

How the values were obtained:
F98/hNIS gliomas [1] = test: 99mTcO4 scintigraphy of intracerebral F98/hNIS gliomas; format: in vivo, rat; settings: about 20 min after tail vein injection
Description: (§1) Fischer rats weighing 175 to 200 grams (Harlan Sprague Dawley, Indianapolis, Ind.) were stereotactically implanted with tumor cells.^11,21 The tumor cells were either F98 cells or F98 cells which had been infected with and expressed a wild-type NIS protein (see Example 1). All experimental procedures received approval from Institutional Laboratory Animal Care and Use Committee of the Ohio State University. Briefly, rats were sedated by intraperitoneal (i.p.) administration of 120 mg of ketamine/20 mg of xylazine (Fort Dodge, Fort Dodge, IA) per kg of body weight, after which a plastic screw (Arrow Machine Manufacturing, Inc., Richmond, VA) was embedded into the cranium. F98 cells were injected within 10 to 15 seconds through a central hole in the plastic screw into the right hemisphere at a concentration of 10^3 (for therapeutic study) or 10^5 (for imaging study) cells in 10 μl of serum-free DMEM containing 1.4% agarose with a gelling temperature of <30° C. The screw hole was filled with bone wax immediately following withdrawal of the needle, and the operative field was flushed with betadine before the scalp incision was closed with a single sterilized clip.
(§2) Rats were anesthetized by i.p. injection of ketamine/xylazine, and then 2.0 mCi of ^99mTcO4 in 0.2 ml volume was administered via tail vein injection. […]

parental F98 tumors = test: 99mTcO4 scintigraphy of intracerebral parental F98 tumors; format: in vivo, rat; settings: about 20 min after tail vein injection
Description: as §1, §2

[2] = serial 123I scintigraphy, radioiodide retention in thyroid; format: in vivo, rat; settings: in the thyroid, from time activity curve, tail vein injection
Description: (§3) Serial ^123I images were obtained to determine the retention of radioiodide in the hNIS-transduced tumors (FIG. 7A). The average survival time for rats implanted with 10^5 F98/hNIS glioma cells was about 14-16 days. For studies of ^123I retention, images were acquired on days 13 to 15 following tumor implantation at which time ^123I (0.25 mCi) was administered via tail vein injection. Modified conjugate images were obtained sequentially with the rat first in dorsal-ventral and then ventral-dorsal positions on the top of the LEUHR collimator at 5 min, 20 min, 1 hr, 4 hr, 24 hr, and 37 hr following injection. The acquisition time at 5 min post-injection image was 5 min, and the acquisition times at subsequent time points were corrected for the physical decay of ^123I. Regions of interest (ROI) were drawn over the tumor, thyroid, and shoulder region (as a background) in two views (vertex and then ventral) of pinhole images for each different time point, and the geometric means of the count rates (counts/pixel) for each ROI in each view were calculated. Biological half-life of radioiodine was estimated based on the time activity curve generated by plotting the tumor ROI count rates versus time.

F98/hNIS gliomas [3] = test: serial 123I scintigraphy, radioiodide retention in tumor; format: in vivo, rat
Description: as §1
as §3, with “The acquisition time at 5 min post-injection image was 5 min, and the acquisition times at subsequent time points were corrected for the physical decay of ^123I.” left out, “Biological half-life of radioiodine was estimated based on the time activity curve generated by plotting the tumor ROI count rates versus time.” left out

F98/LXSN tumors = test: 131I therapy study, intracerebral empty vector transduced tumors; format: in vivo, rat
Description: as §1
For ^131I therapy studies, rats were implanted stereotatically with 1×10^3 F98 cells on day 0, and the animals were divided into 3 groups: empty vector transduced tumors with ^131I treatment (F98/LXSN+^131I), hNIS transduced tumors without ^131I treatment (F98/hNIS—^131I), hNIS transduced tumors with ^131I treatment (F98/hNIS+^131I). Each group contained 12 rats. To minimize exposure of the thyroid gland to ^131I, rats were placed on 1 ppm thyroxine (T4)-supplemented diet (Harlan Teklad, Madison, Wis.) beginning one week prior to the first day of ^131I treatment. […] Therefore, animals displaying these signs were sacrificed, and survival times were determined from the day of tumor implantation to the day of sacrifice plus 1 day.^21,24 The observers were not blinded to sacrifice the rats. […] Tumor size was measured as (the longest length)×(the length perpendicular to the longest length) in tumor sections. […]

F98/hNIS tumors = test: 131I therapy study, intracerebral hNIS-transduced tumors; format: in vivo, rat
Description: as §1
For ^131I therapy studies, rats were implanted stereotatically with 1×10^3 F98 cells on day 0, and the animals were divided into 3 groups: empty vector transduced tumors with ^131I treatment (F98/LXSN+^131I), hNIS transduced tumors without ^131I treatment (F98/hNIS—^131I), hNIS transduced tumors with ^131I treatment (F98/hNIS+^131I). Each group contained 12 rats. To minimize exposure of the thyroid gland to ^131I, rats were placed on 1 ppm thyroxine (T4)-supplemented diet (Harlan Teklad, Madison, Wis.) beginning one week prior to the first day of ^131I treatment. Animals received three i.p. injections, 4 mCi of ^131I per injection, on days 12, 14 and 16 post-implantation for a total of 12 mCi. The tumor size index on day 14 was assumed to be ˜2 mm^2 based on a previous study.^18 Animals were weighed three times per week. […] Therefore, animals displaying these signs were sacrificed, and survival times were determined from the day of tumor implantation to the day of sacrifice plus 1 day.^21,24 The observers were not blinded to sacrifice the rats. To confirm that all animals had progressively growing tumors at the time of death, the brains were removed, fixed in 10% neutral buffered formalin, and then 2-mm coronal sections were cut with a rat brain slicer (Zivic-Miller Laboratories, Inc., Allison Park, PA), and processed for routine histopathological examination. Tumor size was measured as (the longest length)×(the length perpendicular to the longest length) in tumor sections. Survival among different experimental groups was compared using unpaired t test as well as Log-rank test. Tumor sizes among different experimental groups were compared using unpaired t test. The P value of <0.05 were considered statistically significant.

hNIS = target: T1, hNIS (Homo sapiens, UniProt Q92911); test: inhibition of induced RAIU in hNIS-transduced F98 cells; format: cell-based
T1 construct: expressed in transfected cells; host or cells: F98 rat glioma cells infected with L-hNIS-SN recombinant retrovirus, G418-selected clone
T1 sequence (Q92911 1-643): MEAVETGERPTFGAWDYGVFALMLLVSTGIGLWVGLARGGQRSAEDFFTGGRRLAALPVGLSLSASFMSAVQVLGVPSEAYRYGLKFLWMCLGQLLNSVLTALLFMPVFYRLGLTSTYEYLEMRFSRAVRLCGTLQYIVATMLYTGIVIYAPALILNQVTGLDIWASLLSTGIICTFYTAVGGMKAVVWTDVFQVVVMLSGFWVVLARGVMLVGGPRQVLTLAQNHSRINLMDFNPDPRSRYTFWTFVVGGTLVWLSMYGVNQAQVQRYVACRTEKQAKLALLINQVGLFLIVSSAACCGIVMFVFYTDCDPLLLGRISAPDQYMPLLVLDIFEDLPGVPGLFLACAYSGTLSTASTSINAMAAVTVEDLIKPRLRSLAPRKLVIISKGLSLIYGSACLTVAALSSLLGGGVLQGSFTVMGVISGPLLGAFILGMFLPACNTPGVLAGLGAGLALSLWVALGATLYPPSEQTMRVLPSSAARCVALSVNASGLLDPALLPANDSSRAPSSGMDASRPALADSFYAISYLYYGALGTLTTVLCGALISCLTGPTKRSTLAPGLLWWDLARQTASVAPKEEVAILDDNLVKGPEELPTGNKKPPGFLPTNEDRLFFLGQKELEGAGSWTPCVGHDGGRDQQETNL
Description: NIS function in the hNIS-transduced F98 glioma cells was tested in vitro by radioiodide uptake assay^5 (RAIU). Cells (2×10^5 cells per well) were seeded in 24-well plates. At various times after seeding, the cells were incubated for 30 min at 37° C., 5.0% CO2 with growth media containing 2.0 μCi Na ^125I and 5-10 μM NaI carrier. The medium was aspirated and cells were quickly washed twice with ice-cold Hank's balanced salt solution (HBSS). Cells were then lysed by incubation with 95% ethanol. The radioactivity of the cell lysate was measured by a γ-counter (Packard Instruments, Downers Grove, Ill., USA). Experiments were performed in triplicate. The RAIU activity of the infected cells was expressed in terms of fold increase compared with that of mock-infected parental cells.

[4] = test system: endogenous rat NIS in thyroid; test: thyroid 99mTcO4 scintigraphy and NIS Western blot in rats fed T4-supplemented diet; format: in vivo
Description: Western blot analysis was performed as previously described.^23 Briefly, the tumors were removed from the animals and homogenized in a homogenizing buffer (10 mM Tris-HCl (pH 7.5), 5 mM NaCl, 1 mM EDTA, 0.1 mM PMSF, 50 μg/ml leupeptin) containing 0.25 M sucrose. The lysates were centrifuged at 700 g for 10 min at 4° C. The supernatants were further centrifuged at 200,000 g for 60-90 min at 4° C. to obtain membrane fractions, which were resuspended in homogenizing buffer without sucrose and kept at −80° C. until use. The membrane fractions ([…] per lane) were solubilized for 30 min at 37° C. in the same volume of reducing sample buffer (0.125 M Tris-HCl (pH 6.8), 4% SDS, 10% β-mercaptoethanol, 20% glycerol) and subjected to 4-20% gradient or 7.5% SDS-PAGE. The proteins were transferred on to a nitrocellulose filter which was then blocked with 5% nonfat dry mild in TBST buffer (10 mM Tris-HCl (pH 8.0), 150 mM NaCl, 0.1% Tween 20) at 4° C. overnight. […]
Rats fed a T4-supplemented diet were expected to have reduced RAIU in thyroid, as the endogenous NIS expression and activity in thyroid tissues is TSH-dependent. […] In comparison, thyroid was readily detectable by ^99mTcO4 scintigraphy in rats fed a normal diet. […]

[5] = F98/LXSN with 131I treatment group
[6] = F98/hNIS with 131I treatment group

With [O]=[99Tc](=[O])(=[O])[O-] [99mTcO4] the “99mTcO4 uptake in tumor” value (F98/hNIS gliomas [1]) was “intense” and the “99mTcO4 uptake in tumor” value (parental F98 tumors) was “no ^99mTcO4 uptake was found”.

For [123IH] [123I], the “biological half-life of 123I” value [2] was “greater than 20 hours”, the “123I uptake in tumor” value (F98/hNIS gliomas [3]; F98/hNIS gliomas, by 37 hours post-injection) was “barely detectable” and the “radioiodide uptake in tumor” value (F98/hNIS gliomas [3]; F98/hNIS gliomas, through 24 hrs post-injection) was “evident”. The “biological half-life of 123I” value (F98/hNIS gliomas [3]; in F98/hNIS gliomas, from time activity curve, tail vein injection) was 10 hours.

With [131IH] [131I] the average survival time (F98/LXSN tumors; F98/LXSN tumors with 131I treatment, 3 i.p. injections, total 12 mCi) was 30.4 ± 3.2 days, the “tumor size at sacrifice, length perpendicular to the longest length” value (F98/LXSN tumors; [5]) was 6.4±1.6 mm and the “tumor size at sacrifice, longest length” value (F98/LXSN tumors; [5]) was 8.7±1.6 mm. For the same molecule, the average survival time (F98/hNIS tumors; F98/hNIS tumors with 131I treatment, 3 i.p. injections, total 12 mCi) was 45 ± 8.6 days, the “prolongation of average survival time” value (F98/hNIS tumors; F98/hNIS with 131I compared to F98/LXSN with 131I, P<0.01) was roughly 2 weeks and the “prolongation of average survival time” value (F98/hNIS tumors; F98/hNIS with 131I compared to F98/hNIS without 131I, P<0.05) was 6 days. For the same molecule, the “tumor size at sacrifice, length perpendicular to the longest length” value (F98/hNIS tumors; [6]) was 6.1±1.5 mm and the “tumor size at sacrifice, longest length” value (F98/hNIS tumors; [6]) was 8.5±1.9 mm.

For [O-][Cl+3]([O-])([O-])O [NaClO4, sodium perchlorate], the “effect on induced RAIU” value (hNIS) was “suppressed; also recorded: inhibited”.

For N[C@@H](Cc1cc(I)c(Oc2cc(I)c(O)c(I)c2)c(I)c1)C(=O)O [T4, thyroxine], the “NIS glycoprotein in thyroid by Western blot” value ([4]; rats fed T4-supplemented diet) was “barely detected” and the “thyroid detectability by 99mTcO4 scintigraphy” value ([4]; rats fed T4-supplemented diet for 11 days) was “not detectable”.
